The values below come from PubChem BioAssay (NCI).

Where “and” joins values, the source holds several entries; their conditions need not be identical. Equal entries are not always repeated.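 Interpolation was linear, between the two tested concentrations surrounding the appropriate level; five concentrations were tested over 48 hours in 96-well plates. Abbreviation: GI50, concentration required for 50% inhibition of growth. TGI: concentration producing complete growth inhibition.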

Some test systems named below: SNB-75 CNS; SK-MEL-5 melanoma; NCI/ADR-RES ovarian; MCF7 breast; SN12C renal; NCI-H23 lung; HCC-2998 colon; A498 renal; KM12 colon; RXF 393 renal.
What all share (assay): NCI-60 cell line screen, 48 h

For `O=c1oc2ccc(F)cc2c(=O)n1-c1ccc(Br)cc1F`, the GI50 in the assay on SNB-75 CNS is 0.252 µM; in the assay on SK-MEL-5 melanoma it was 0.267 µM; in the assay on NCI/ADR-RES ovarian, 0.85 µM; in the assay with MCF7 breast, 2.04 µM; in the assay with SN12C renal, 0.376 µM; with NCI-H23 lung it was 0.481 µM. Further, the GI50 with HCC-2998 colon is 2.9 µM; with A498 renal, 0.184 µM; with KM12 colon it was 2.23 µM; with RXF 393 renal, 0.923 µM. Further, the TGI in the assay with SNB-75 CNS is 2.79 µM; in the assay on SK-MEL-5 melanoma, 0.737 µM; with NCI/ADR-RES ovarian, 8.9 µM; in the assay on MCF7 breast it was > 29.5 µM; with SN12C renal, 7.6 µM; with HCC-2998 colon, 10.8 µM. Also, the TGI with A498 renal came out at 0.72 µM; in the assay with KM12 colon, 6.16 µM; with RXF 393 renal it was 4.66 µM.

With `COC(=O)[C@H](Cc1ccccc1)NC(=O)c1csc([C@@H](C[C@H](C(C)C)N(C)C(=O)[C@@H](NC(=O)[C@H]2CCCN2C)C2CC2)OC(C)=O)n1`, the GI50 is 0.131 µM with SNB-75 CNS; 0.671 µM in the assay with SK-MEL-5 melanoma; 8.59 µM with NCI/ADR-RES ovarian; 0.124 µM in the assay with MCF7 breast; 0.548 µM in the assay on SN12C renal; 1.46 µM in the assay with NCI-H23 lung. Moreover, the values for the GI50 in the assay with HCC-2998 colon, with A498 renal and in the assay on KM12 colon were 1.48 µM, 1.53 µM and 0.45 µM, respectively. Moreover, the TGI in the assay with SNB-75 CNS was > 33.3 µM; in the assay with SK-MEL-5 melanoma, 8.99 µM; with NCI/ADR-RES ovarian it was > 33.3 µM; in the assay on MCF7 breast it was > 33.3 µM; in the assay on SN12C renal, > 33.3 µM; with NCI-H23 lung, > 33.3 µM. Also, the TGI with HCC-2998 colon was > 33.3 µM; in the assay with A498 renal, 15.2 µM; in the assay with KM12 colon, > 33.3 µM.

As for `COc1ccc(C2ONC3=NCCN32)cc1` (stereo unspecified), the GI50 in the assay on SNB-75 CNS was > 100 µM; with SK-MEL-5 melanoma, 53.3 µM; with NCI/ADR-RES ovarian it was 40.4 µM; in the assay with MCF7 breast, 61.1 µM; in the assay with SN12C renal, 52.8 µM; in the assay with NCI-H23 lung, > 100 µM. In addition, the GI50 with HCC-2998 colon was 49.7 µM; in the assay on A498 renal, > 100 µM; with KM12 colon, 54.7 µM; with RXF 393 renal, > 100 µM. Further, the TGI in the assay on SNB-75 CNS, in the assay on SK-MEL-5 melanoma, with NCI/ADR-RES ovarian, in the assay on MCF7 breast, in the assay on SN12C renal and in the assay with NCI-H23 lung was > 100 µM in each case. For the same molecule, the TGI in the assay with HCC-2998 colon, with A498 renal, in the assay with KM12 colon and in the assay on RXF 393 renal was > 100 µM each time.

As for `COc1ccc(/C=C(/C(=O)n2cnnn2)c2cc(OC)c(OC)c(OC)c2)cc1`, the GI50 with SNB-75 CNS was 3.34 µM; in the assay with SK-MEL-5 melanoma, 3.12 µM; in the assay with NCI/ADR-RES ovarian, 3.87 µM; in the assay with MCF7 breast, 2.63 µM; in the assay on SN12C renal, 5.15 µM; in the assay with NCI-H23 lung it was 5.54 µM. Further, the GI50 with A498 renal is 4.26 µM; in the assay with KM12 colon, 1.96 µM; in the assay with RXF 393 renal, 3.91 µM. Moreover, the TGI in the assay on SNB-75 CNS is > 100 µM; with SK-MEL-5 melanoma, 29.4 µM; in the assay with NCI/ADR-RES ovarian it was > 100 µM; in the assay with MCF7 breast, > 100 µM; in the assay on SN12C renal, > 100 µM; in the assay with NCI-H23 lung, > 100 µM. The TGI in the assay on A498 renal, in the assay with KM12 colon and in the assay on RXF 393 renal was > 100 µM in each case.

Consider `COc1cc(O)c(C(C)=O)c(O)c1`, for which the TGI with SNB-75 CNS, in the assay on SK-MEL-5 melanoma, in the assay with NCI/ADR-RES ovarian, in the assay on MCF7 breast, in the assay with SN12C renal and in the assay on NCI-H23 lung was > 100 µM each time. For the same molecule, the TGI in the assay on HCC-2998 colon, with A498 renal, in the assay with KM12 colon and in the assay on RXF 393 renal was > 100 µM in each case.

In the case of `CC[C@H](C)[C@H](NC(=O)[C@H]1CCCCN1C)C(=O)N(C)[C@H](C[C@@H](OC(C)=O)c1nc(C(=O)N[C@@H](Cc2ccccc2)C[C@H](C)C(=O)OC)cs1)C(C)C`, the GI50 was 0.000335 µM and 0.0025 µM in the assay with SNB-75 CNS; 9.09e-05 µM and < 0.0025 µM in the assay on SK-MEL-5 melanoma; 0.00772 µM in the assay on NCI/ADR-RES ovarian; 0.00076 µM and 0.0025 µM in the assay with SN12C renal; 0.00071 µM and 0.0025 µM in the assay with NCI-H23 lung; 0.00032 µM and 0.0025 µM in the assay on HCC-2998 colon. The GI50 in the assay on A498 renal was 0.000267 µM and < 0.0025 µM; in the assay with RXF 393 renal, 0.0025 µM. Further, the TGI was 0.00455 µM and < 0.0025 µM in the assay with SK-MEL-5 melanoma; > 25 µM in the assay with MCF7 breast; > 25 µM in the assay on SN12C renal; > 25 µM in the assay on NCI-H23 lung; > 25 µM in the assay on HCC-2998 colon; < 0.0025 µM in the assay with A498 renal. The results for the TGI in the assay on KM12 colon and with RXF 393 renal were > 25 µM and 22.7 µM, respectively.

For `CCc1cccc(CC)c1/C=C/c1cncc(C(=O)NC)c1`, the GI50 was 7.08 µM in the assay on SNB-75 CNS; 5.71 µM with SK-MEL-5 melanoma; 6.71 µM in the assay on NCI/ADR-RES ovarian; 7.74 µM with MCF7 breast; 10.8 µM in the assay on SN12C renal; 15.2 µM with NCI-H23 lung. In addition, the GI50 is 11.2 µM in the assay on HCC-2998 colon, 8.68 µM in the assay on A498 renal, 9.02 µM with KM12 colon and 5.87 µM with RXF 393 renal. The TGI in the assay with SNB-75 CNS is > 25 µM; in the assay with SK-MEL-5 melanoma it was > 16.2 µM; in the assay on NCI/ADR-RES ovarian, > 25 µM; with MCF7 breast, > 25 µM; in the assay on SN12C renal, > 25 µM; in the assay with NCI-H23 lung it was > 25 µM. Further, the TGI with HCC-2998 colon is > 25 µM; in the assay on A498 renal it was > 22.2 µM; in the assay on KM12 colon, > 25 µM; with RXF 393 renal it was 24.8 µM.

Consider `Cn1cc(CO)c2ccccc21`, for which the GI50 with SNB-75 CNS is 27.6 µM; in the assay on SK-MEL-5 melanoma, 48.6 µM; in the assay on NCI/ADR-RES ovarian it was 27.1 µM; with MCF7 breast, 26.9 µM; with SN12C renal, 50.9 µM; in the assay with NCI-H23 lung, 48.2 µM. In addition, the GI50 in the assay on HCC-2998 colon is > 100 µM; with A498 renal, 17.6 µM; with KM12 colon, 15.9 µM; with RXF 393 renal it was 49.7 µM. Moreover, the TGI in the assay on SNB-75 CNS, with SK-MEL-5 melanoma, in the assay with NCI/ADR-RES ovarian, in the assay on MCF7 breast, with SN12C renal and in the assay with NCI-H23 lung was > 100 µM in each case. Moreover, the TGI with HCC-2998 colon was > 100 µM; with A498 renal, 73.1 µM; in the assay with KM12 colon it was 88.5 µM; in the assay on RXF 393 renal it was > 100 µM.
